Source: patent US6737383B1, “Herbicidal oxadiazolidines” (priority 1999, dated 2004)

Experiments:
morningglory = assay: Test B pre/postemergence morningglory; assay type: in vivo, Ipomoea hederacea
How it was run: (§1)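 Test chemicals in a non-phytotoxic solvent mixture with surfactant were sprayed preemergence onto planted seeds and postemergence onto plants 2 to 18 cm tall (1- to 4-leaf stage). After twelve to sixteen days in a greenhouse, injury was visually rated against untreated controls from 0 (no effect) to 10 (complete control).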

giant foxtail = assay: Test B pre/postemergence giant foxtail; assay type: in vivo, Setaria faberii
How it was run: as §1

purple nutsedge = assay: Test B pre/postemergence purple nutsedge; assay type: in vivo, Cyperus rotundus
How it was run: as §1

bamyardgrass = assay: Test B flood test barnyardgrass; assay type: in vivo, Echinochloa crus-galli
How it was run: (§2)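 Flood test on plants grown to the 2-leaf stage; treated plants kept in greenhouse twelve to sixteen days, then visually rated against controls on a 0 (no effect) to 10 (complete control) scale.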

blackgrass = assay: Test B pre/postemergence blackgrass; assay type: in vivo, Alopecurus myosuroides
How it was run: as §1

sugar beet = assay: Test B pre/postemergence sugar beet; assay type: in vivo, Beta vulgaris
How it was run: as §1

pigweed = assay: Test B pre/postemergence pigweed; assay type: in vivo, Amaranthus retroflexus
How it was run: as §1

soybean = assay: Test B pre/postemergence soybean; assay type: in vivo, Glycine max
How it was run: as §1

rape = assay: Test B pre/postemergence rape; assay type: in vivo, Brassica napus
How it was run: as §1

velvetleaf = assay: Test B pre/postemergence velvetleaf; assay type: in vivo, Abutilon theophrasti
How it was run: as §1

surinam grass = assay: Test B pre/postemergence surinam grass; assay type: in vivo, Brachiaria decumbens
How it was run: as §1

cocklebur = assay: Test B pre/postemergence cocklebur; assay type: in vivo, Xanthium strumarium
How it was run: as §1

smallflower flatsedge = assay: Test B flood test smallflower flatsedge; assay type: in vivo, Cyperus difformis
How it was run: as §2

corn = assay: Test B pre/postemergence corn; assay type: in vivo, Zea mays
How it was run: as §1

crabgrass = assay: Test B pre/postemergence crabgrass; assay type: in vivo, Digitaria sanguinalis
How it was run: as §1

wild oat = assay: Test B pre/postemergence wild oat; assay type: in vivo, Avena fatua
How it was run: as §1

[1] = Postemergence, Rate 62 g/ha, scale 0 to 10, 0 is no effect, 10 is complete control
[2] = Postemergence, Rate 125 g/ha, scale of 0 to 10 where 0 is no effect and 10 is complete control
[3] = Postemergence, Rate 250 g/ha, scale 0 to 10, 0 no effect, 10 complete control
[4] = Preemergence, Rate 62 g/ha, scale 0 to 10 (0 no effect, 10 complete control)
[5] = Preemergence, Rate 125 g/ha, scale 0 to 10 (0 no effect, 10 complete control)
[6] = Preemergence, Rate 250 g/ha, scale of 0 to 10 where 0 is no effect and 10 is complete control
[7] = Preemergence, Rate 500 g/ha, scale 0 (no effect) to 10 (complete control)
[8] = Rate 500 g/ha, Postemergence, scale 0 to 10, 0 no effect, 10 complete control
[9] = Rate 500 g/ha, listed under Postemergence (flood test species), scale 0 to 10, 0 no effect, 10 complete control
[10] = Rate 250 g/ha, Postemergence, scale 0 to 10, 0 is no effect, 10 is complete control

CC(C)N(C(=O)n1oc(=O)n(-c2cccc3c2CCCC3)c1=O)c1ccc(F)cc1 [Compound 90]
Morningglory plant response rating (morningglory; [1]): 3
Morningglory plant response rating (morningglory; [2]): 3
Morningglory plant response rating (morningglory; [3]): 4
Morningglory plant response rating (morningglory; [4]): 0
Plant response rating, Morningglory (morningglory; [5]): 0
Plant response rating, Morningglory (morningglory; [6]): 0
Morningglory plant response rating (morningglory; [7]): 0
Morningglory plant response rating (morningglory; [8]): 4
Giant foxtail plant response rating (giant foxtail; [1]): 0
Giant foxtail plant response rating (giant foxtail; [2]): 0
Giant foxtail plant response rating (giant foxtail; [3]): 1
Giant foxtail plant response rating (giant foxtail; [4]): 4
Plant response rating, Giant foxtail (giant foxtail; [5]): 8
Plant response rating, Giant foxtail (giant foxtail; [6]): 9
Giant foxtail plant response rating (giant foxtail; [7]): 10
Giant foxtail plant response rating (giant foxtail; [8]): 1
Nutsedge plant response rating (purple nutsedge; [1]): 0
Nutsedge plant response rating (purple nutsedge; [2]): 0
Nutsedge plant response rating (purple nutsedge; [3]): 0
Nutsedge plant response rating (purple nutsedge; [4]): 0
Plant response rating, Nutsedge (purple nutsedge; [5]): 0
Plant response rating, Nutsedge (purple nutsedge; [6]): 0
Nutsedge plant response rating (purple nutsedge; [7]): 0
Nutsedge plant response rating (purple nutsedge; [8]): 0
Barnyardgrass plant response rating (bamyardgrass; [1]): 0
Barnyardgrass plant response rating (bamyardgrass; Rate 125 g/ha, Postemergence section (flood test species), scale 0 to 10, 0 no effect, 10 complete control): 0
Barnyardgrass plant response rating (bamyardgrass; [9]): 0
Barnyardgrass plant response rating (bamyardgrass; flood test, listed under Postemergence, Rate 250 g/ha, scale 0 to 10, 0 no effect, 10 complete control): 0
Blackgrass plant response rating (blackgrass; [1]): 0
Blackgrass plant response rating (blackgrass; [2]): 0
Blackgrass plant response rating (blackgrass; [3]): 0
Blackgrass plant response rating (blackgrass; [4]): 0
Plant response rating, Blackgrass (blackgrass; [5]): 0
Plant response rating, Blackgrass (blackgrass; [6]): 3
Blackgrass plant response rating (blackgrass; [7]): 6
Blackgrass plant response rating (blackgrass; [8]): 0
Sugarbeets plant response rating (sugar beet; [1]): 0
Sugarbeets plant response rating (sugar beet; [2]): 0
Sugarbeets plant response rating (sugar beet; [4]): 0
Plant response rating, Sugarbeets (sugar beet; [5]): 0
Plant response rating, Sugarbeets (sugar beet; [6]): 0
Sugarbeets plant response rating (sugar beet; [7]): 0
Plant response rating, Sugarbeets (sugar beet; [10]): 3
Sugarbeets plant response rating (sugar beet; [8]): 3
Redroot pigweed plant response rating (pigweed; [1]): 2
Redroot pigweed plant response rating (pigweed; [2]): 5
Redroot pigweed plant response rating (pigweed; [4]): 0
Plant response rating, Redroot pigweed (pigweed; [5]): 0
Plant response rating, Redroot pigweed (pigweed; [6]): 0
Redroot pigweed plant response rating (pigweed; [7]): 6
Plant response rating, Redroot pigweed (pigweed; [10]): 6
Redroot pigweed plant response rating (pigweed; [8]): 7
Soybean plant response rating (soybean; [1]): 4
Soybean plant response rating (soybean; [2]): 4
Soybean plant response rating (soybean; [4]): 0
Plant response rating, Soybean (soybean; [5]): 0
Plant response rating, Soybean (soybean; [6]): 0
Soybean plant response rating (soybean; [7]): 0
Plant response rating, Soybean (soybean; [10]): 4
Soybean plant response rating (soybean; [8]): 4
Rape plant response rating (rape; [1]): 0
Rape plant response rating (rape; [2]): 0
Rape plant response rating (rape; [3]): 0
Rape plant response rating (rape; [4]): 0
Plant response rating, Rape (rape; [5]): 0
Plant response rating, Rape (rape; [6]): 0
Rape plant response rating (rape; [7]): 0
Rape plant response rating (rape; [8]): 0
Velvetleaf plant response rating (velvetleaf; [1]): 0
Velvetleaf plant response rating (velvetleaf; [2]): 0
Velvetleaf plant response rating (velvetleaf; [4]): 0
Plant response rating, Velvetleaf (velvetleaf; [5]): 0
Plant response rating, Velvetleaf (velvetleaf; [6]): 0
Velvetleaf plant response rating (velvetleaf; [7]): 0
Plant response rating, Velvetleaf (velvetleaf; [10]): 0
B. signalgrass plant response rating (surinam grass; [1]): 0
B. signalgrass plant response rating (surinam grass; [3]): 0
B. signalgrass plant response rating (surinam grass; [4]): 0
Plant response rating, B. signalgrass (surinam grass; [5]): 0
B. signalgrass plant response rating (surinam grass; [7]): 3
B. signalgrass plant response rating (surinam grass; Rate 125 g/ha, Postemergence, scale 0 to 10, 0 no effect, 10 complete control): 0
B. signalgrass plant response rating (surinam grass; Rate 500 g/ha, Postemergence, scale of 0 to 10 where 0 is no effect and 10 is complete control): 0
Cocklebur plant response rating (cocklebur; [1]): 1
Cocklebur plant response rating (cocklebur; [2]): 3
Cocklebur plant response rating (cocklebur; [3]): 3
Cocklebur plant response rating (cocklebur; [4]): 0
Plant response rating, Cocklebur (cocklebur; [5]): 0
Plant response rating, Cocklebur (cocklebur; [6]): 0
Cocklebur plant response rating (cocklebur; [7]): 0
Cocklebur plant response rating (cocklebur; [8]): 5
S. Flatsedge plant response rating (smallflower flatsedge; Postemergence (flood test species), Rate 125 g/ha, scale of 0 to 10 where 0 is no effect and 10 is complete control): 0
S. Flatsedge plant response rating (smallflower flatsedge; [1]): 0
Plant response rating, S. Flatsedge (smallflower flatsedge; Rate 250 g/ha, Postemergence (flood test), scale 0 to 10, 0 is no effect, 10 is complete control): 0
S. Flatsedge plant response rating (smallflower flatsedge; [9]): 0
Corn plant response rating (corn; [1]): 0
Corn plant response rating (corn; [2]): 0
Corn plant response rating (corn; [3]): 0
Corn plant response rating (corn; [4]): 0
Plant response rating, Corn (corn; [5]): 0
Plant response rating, Corn (corn; [6]): 0
Corn plant response rating (corn; [7]): 0
Corn plant response rating (corn; [8]): 0
Crabgrass plant response rating (crabgrass; [1]): 1
Crabgrass plant response rating (crabgrass; [2]): 2
Crabgrass plant response rating (crabgrass; [3]): 2
Crabgrass plant response rating (crabgrass; [4]): 0
Plant response rating, Crabgrass (crabgrass; [5]): 2
Plant response rating, Crabgrass (crabgrass; [6]): 8
Crabgrass plant response rating (crabgrass; [7]): 8
Crabgrass plant response rating (crabgrass; [8]): 4
Wild oats plant response rating (wild oat; [1]): 0
Wild oats plant response rating (wild oat; [2]): 0
Wild oats plant response rating (wild oat; [4]): 0
Plant response rating, Wild oats (wild oat; [5]): 0
Plant response rating, Wild oats (wild oat; [6]): 2
Wild oats plant response rating (wild oat; [7]): 3
Plant response rating, Wild oats (wild oat; [10]): 0
Wild oats plant response rating (wild oat; [8]): 0
